One data set deals with ferrets. Description: Emesis studies in ferrets. It counts as in vivo, ferret (Mustela putorius furo). Particulars: 1-30 mg/kg s.c., 1 hr observation. How it is done: Emetic Effects of Compound (S)-15 (YL-1-127) in Ferrets. Effects of (S)-15 in causing nausea and emesis were assessed in a ferret model. For comparison, varenicline was also tested. […] In general, all animals remained alert and active with periods of inactivity that mirrored their baseline behavior within the 1 hr observation period.
In one animal, this behavior was accompanied by oral stereotypy (licking), whereas in two animals it was interspersed by episodes of backward walking. On the average, these behaviors manifested around ˜2.20 min. […] Occasionally, when animals tried to ambulate they would immediately cease their movement after each attempt. This would be followed by a momentary increase in breathing, giving the impression that the animal was in distress.
General Procedures for Emesis Studies in Ferrets. Studies were undertaken in male ferrets (Mustela putorius furo) weighing 0.9-1.5 kg (Marshall Farms, N.Y.). They were housed in controlled conditions of room temperature (22° C.) and light (12:12 h light-dark cycle) with free access to food and water. Prior to each experiment, food was withheld overnight, whereas water was provided ad libitum.
Emetic testing consisted of placing animals individually in a polycarbonate enclosure. Following a 30 min acclimation period, each animal randomly received a subcutaneus injection of varencline or compound (S)-15 (YL-1-127) in the subscapular region. A 60 min observation and video recording followed the drug administration. […] All drugs were dissolved in sterile saline.
Video analysis of the incidence of emesis, stereotypical behaviors (such as licking, mouth-clawing, backward walking, gagging, and burying of the head in cage) and GI side effects (diarrhea) was done off-line. Stereotypical behaviors are thought to be reflective of a subjective sensation of nausea. The emetic index of a drug was calculated as the […] of animals displaying emesis (one or more times in 60 min) divided by the total number of animals tested. An emetic episode was defined as the forceful oral expulsion of liquid or solid upper gastrointestinal contents that is temporally separated from another by at least 30 s.
The Nausea Index for the stereotypical behaviors was derived from the mean±SEM number of nausea behaviors observed among all animals in a given treatment group. Significance was determined at p<0.05.

Another data set deals with human α4β2 nAChRs (Homo sapiens (Human), UniProt P17787+P43681). In words: 86Rb+ efflux assay (activation and desensitization), α4β2. Type of data set: cell-based. The following applies: for Emax: read-out: Emax α4β2 nAChRs; for IC50: desensitization. How it is done: In Vitro Effects on nAChR Function. […] Their agonist activities were assessed by measuring stimulated ^86Rb^+ efflux from stably transfected cells, either expressing human α4β2 nAChRs or rat α3β4 receptors.
Cell Lines and Cell Culture. The cell lines expressing defined rat nAChR subtypes were established previously by stably transfecting HEK 293 cells with rat nAChR subunit genes. The cell line expressing human α4β2 nAChRs, YXα4β2H1, was established recently. These cell lines were maintained in minimum essential medium (MEM) supplemented with 10% fetal bovine serum, 100 units/mL penicillin G, […] and selective antibiotics at 37° C. with 5% CO2 in a humidified incubator. Fetal bovine serum was provided by Gemini Bio-Products (Woodland, Calif.). Tissue culture medium and antibiotics were obtained from Invitrogen Corporation (Carlsbad, Calif.), unless otherwise stated.
^86Rb^+ Efflux Assay. Functional properties of compounds at nAChRs expressed in the transfected cells were measured using ^86Rb^+ efflux assays as described previously. In brief, cells expressing human α4β2 or rat α3β4 nAChRs were plated into 24-well plates coated with poly-D-lysine. The plated cells were grown at 37° C. for 18 to 24 hour to reach 85-95% confluence. The cells were then incubated in growth medium (0.5 mL/well) containing ^86Rb^+ (2 μCi/mL) for 4 hour at 37° C. The loading mixture was then aspirated, and the cells were washed four times with 1 mL buffer (15 mM HEPES, 140 mM NaCl, 2 mM KCl, 1 mM MgSO4, 1.8 mM CaCl2, 11 mM Glucose, pH 7.4). One mL of buffer with or without compounds to be tested was then added to each well. After incubation for 2 min, the assay buffer was collected for measurements of ^86Rb^+ released from the cells. Cells were then lysed by adding 1 mL of 100 mM NaOH to each well, and the lysate was collected for determination of the amount of ^86Rb^+ that was in the cells at the end of the efflux assay. Radioactivity of assay samples and lysates was measured by liquid scintillation counting. Total loading (cpm) was calculated as the sum of the assay sample and the lysate of each well. The amount of ^86Rb^+ efflux was expressed as a percentage of ^86Rb^+ loaded. […] For obtaining EC50 and Emax values, stimulation curves were constructed in which 8 different concentrations of a ligand were included in the assay. […] EC50, Emax and IC50(10′) values were determined by nonlinear least-squares regression analyses (GraphPad, San Diego, Calif.).
The functional properties of the ligands were determined by ^86Rb^+ efflux assays in cells expressing α3β4 and α4β2 nAChR subtypes. The functional activity of each ligand was measured for its agonism, antagonism and desensitization ability. Agonist activity for each of the ligands was tested at eight different concentrations. […] The full concentration-effect curves generated potency (EC50) and efficacy (Emax) of each ligand. […] We tested each ligand for antagonist activity at eight concentrations. The potency (IC50(0′)) of each ligand as an antagonist was derived from the full concentration-effect curves.

Molecules are shown by their SMILES. Read-outs that look alike come from different tables or passages of the source. Where only a bound is given, the exact number is not on record here.

One may read the EC50 as the concentration needed to bring the measured effect to its halfway point. For orientation: Emax means the size of the effect at its maximum, as opposed to the concentration needed. What is called IC50 is the concentration that gives 50% inhibition. For `CCCCC#Cc1cnc(C)c(OC[C@@H]2CCN2)c1` [(S)-15, (S)-3-(azetidin-2-ylmethoxy)-5-(hex-1-ynyl)-2-methylpyridine], the “emetic episodes or stereotypical behaviors indicative of nausea” value in the data set with ferrets is listed as “did not elicit any emetic episodes or stereotypical behaviors”. Moreover, the EC50 at human α4β2 nAChRs (agonist activity, ND = no significant stimulated efflux detected) came out at 310 nM. For the same compound, the Emax is below 20% on human α4β2 nAChRs (agonist efficacy normalized to Emax of nicotine, ND = no significant stimulated efflux detected) and 15% at human α4β2 nAChRs. Also, the IC50 at human α4β2 nAChRs (10 min pre-treatment, Table 3 (Example 4), read-out: IC50(10′) α4β2) is 18 nM; at human α4β2 nAChRs (10 min pre-incubation before 100 μM nicotine, Table 2, read-out: IC50(10′) α4β2 nAChRs), 180 nM.
